From patent US20250170252A1, “QUINONE PROTECTED FORMS AND CONJUGATES” (CAMBRIDGE ENTERPRISE LIMITED, priority 2022, published 2025)
pIC50: −log10 of the molar value.

Columns and labels:
[1] = tested on: HL-60 (leukaemia cell line); test: Viability assay (CellTiter-Blue), HL-60; format: cell-based; details: Homo sapiens
Experimental: Assays assessing cytotoxicity of β-lapachone and derivatives were performed by CellTiter-Blue assay (Promega) according to the manufacturer's instructions. Briefly, adherent cancer-cell lines were plated at 20,000 cells/well in 96 well plates or suspension cell lines were plated at a concentration of 2×10^5 cells/mL in 24 well plates. Compound stocks in media were made by dilution of DMSO stocks containing the compound of interest to obtain a final in-plate DMSO concentration of only 0.1%. Incubation was performed for 48 h. Following incubation, media was replaced with media containing CellTiter-Blue (Promega) in 1:10 dilution and the plates were incubated for 1.5-4 h. The fluorescence of the plates was recorded (excitation 555 nm, emission 585 nm, […] Reader, Molecular Devices). Cell viability was calculated by division of the fluorescence intensity of treated wells by that of the calculated average fluorescence intensity of replicate negative control wells containing cells with 0.1% DMSO only. Values and reported error bars represent the mean and standard error of the mean of three triplicate repeats for each concentration tested.

[2] = biological target: T1, 5-LO (Homo sapiens, UniProt P09917); details: previous work, Chem. Sci. 2018; cited from earlier work
T1 sequence (P09917 1-674): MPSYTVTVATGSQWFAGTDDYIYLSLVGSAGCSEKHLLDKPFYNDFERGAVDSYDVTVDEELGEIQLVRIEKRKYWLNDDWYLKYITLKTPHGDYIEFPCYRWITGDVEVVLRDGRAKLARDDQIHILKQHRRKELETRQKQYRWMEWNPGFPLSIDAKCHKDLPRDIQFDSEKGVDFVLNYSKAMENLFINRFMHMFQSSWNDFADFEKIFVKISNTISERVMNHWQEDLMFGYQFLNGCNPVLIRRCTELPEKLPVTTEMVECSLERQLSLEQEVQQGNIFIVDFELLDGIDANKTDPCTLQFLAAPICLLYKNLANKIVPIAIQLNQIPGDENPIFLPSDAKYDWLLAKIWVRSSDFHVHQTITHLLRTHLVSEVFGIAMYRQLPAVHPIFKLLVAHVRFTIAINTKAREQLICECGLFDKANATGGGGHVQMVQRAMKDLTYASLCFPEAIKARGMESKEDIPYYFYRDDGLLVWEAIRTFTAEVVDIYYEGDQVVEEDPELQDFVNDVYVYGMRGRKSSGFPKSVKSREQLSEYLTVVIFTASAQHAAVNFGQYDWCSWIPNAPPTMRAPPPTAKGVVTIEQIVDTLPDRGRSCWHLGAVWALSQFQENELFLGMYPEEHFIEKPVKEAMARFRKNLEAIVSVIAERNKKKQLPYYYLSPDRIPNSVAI

[3] = tested on: HL-60 cells; test: Lysosomal inhibition assay with small molecule prodrugs; format: cell-based; details: HL-60, NH4Cl at 30 mM
Experimental: Assays to assess the effect of lysosomal activity on prodrugs were performed as follows: HL-60 cells were plated into 96 well plates at a concentration of 2.5×10^5 cells/mL in 180 μL media. Cells were treated with 10 μL of a stock of NH4Cl in PBS (to obtain an in-plate concentration of 3 or 30 mM), 10 μL of a dilution of a DMSO stock of E64d in PBS (to obtain an in-plate concentration of 30 μM), PBS only, or a dilution of DMSO in PBS. Cells were incubated for 30 min. Following this, 10 μL of a stock of test compound made by dilution of a DMSO stock into media was added. DMSO was present in-plate at a maximum of 0.2%. Cells were incubated overnight for 16 h. Following incubation, media was replaced with media containing CellTiter-Blue (Promega) in 1:4 dilution and the plates were incubated for 6 h. The fluorescence of the plates was recorded (excitation 555 nm, emission 585 nm, MiniMax i3x Reader, Molecular Devices). Cell viability was calculated by division of the fluorescence intensity of treated wells by that of the calculated average fluorescence intensity of the relevant negative control wells. Values and reported error bars represent the mean and standard error of the mean of three triplicate repeats for each concentration tested.

CC1(C)CCC2=C(O1)c1ccccc1C(=O)C2=O [Compound 1, β-lapachone, reference compound]
pIC50 [1]: 5.85 | inhibition of 5-LO [2]: strongly inhibits | toxicity with NH4Cl [3]: increase in toxicity
